Data published in ChEMBL document CHEMBL3885881, “DrugMatrix”.

Organism: Rattus norvegicus
Assay: DrugMatrix - Regimen: Daily Repeat
Assay type: toxicity, organism-based, Sprague-Dawley
Design: regimen Daily Repeat, gender Male, age 6-8 weeks
Conditions: in vivo, po, route oral GAVAGE, vehicle .5 % CMC; for ABSOLUTE BASOPHIL / ABSOLUTE EOSINOPHIL / ABSOLUTE LYMPHOCYTE / ABSOLUTE MONOCYTE / ABSOLUTE SEGMENTED NEUTROPHIL / BASOPHIL / EOSINOPHIL / ERYTHROCYTE COUNT / HEMATOCRIT / HEMOGLOBIN / LEUKOCYTE COUNT / LYMPHOCYTE / MEAN CORPUSCULAR HEMOGLOBIN / MEAN CORPUSCULAR HEMOGLOBIN CONCENTRATION / MEAN CORPUSCULAR VOLUME / MONOCYTE / NEUTROPHIL / NUCLEATED RED BLOOD CELLS / PLATELET COUNT: tissue Blood; for ALANINE AMINOTRANSFERASE / ALBUMIN / ALKALINE PHOSPHATASE / ASPARTATE AMINOTRANSFERASE / BLOOD UREA NITROGEN / CARBON DIOXIDE / CHLORIDE / CHOLESTEROL / CREATINE PHOSPHOKINASE / CREATININE / GLUCOSE / LACTATE DEHYDROGENASE / LIPASE / PHOSPHORUS / POTASSIUM / SODIUM / TOTAL BILIRUBIN / TOTAL PROTEIN / URIC ACID: tissue Plasma
[1] = 0 mg/kg, 72 h, dose level Control, time 3 day
[2] = 0 mg/kg, 120 h, dose level Control, time 5 day
[3] = 1 mg/kg, 72 h, dose level Low, time 3 day

## CCOc1nc2cccc(C(=O)O)c2n1Cc1ccc(-c2ccccc2-c2nnn[nH]2)cc1
[1]
  ABSOLUTE BASOPHIL: 0 CELLS/uL
  ABSOLUTE EOSINOPHIL: 35.67 CELLS/uL
  ABSOLUTE LYMPHOCYTE: 9125.17 CELLS/uL
  ABSOLUTE MONOCYTE: 50.17 CELLS/uL
  ABSOLUTE SEGMENTED NEUTROPHIL: 722.33 CELLS/uL
  BASOPHIL: 0%
  EOSINOPHIL: 0.33%
  ERYTHROCYTE COUNT: 5.35 x10E6/uL
  HEMATOCRIT: 33.58%
  HEMOGLOBIN: 13.35 G/DL
  LEUKOCYTE COUNT: 9.93 x10E3/uL
  LYMPHOCYTE: 91.67%
  MEAN CORPUSCULAR HEMOGLOBIN: 25 pg
  MEAN CORPUSCULAR HEMOGLOBIN CONCENTRATION: 39.8 G/DL
  MEAN CORPUSCULAR VOLUME: 62.77 fL
  MONOCYTE: 0.67%
  NEUTROPHIL: 7.33%
  NUCLEATED RED BLOOD CELLS: 0 /100WBC
  PLATELET COUNT: 866.17 x10E3/uL
  ALANINE AMINOTRANSFERASE: 57.17 u/L
  ALBUMIN: 4.22 G/DL
  ALKALINE PHOSPHATASE: 391 u/L
  ASPARTATE AMINOTRANSFERASE: 95.17 u/L
  BLOOD UREA NITROGEN: 13.67 mg/dL
  CARBON DIOXIDE: 30 mmol/L
  CHLORIDE: 102.5 MEQ/L
  CHOLESTEROL: 72 mg/dL
  CREATINE PHOSPHOKINASE: 485.67 u/L
  CREATININE: 0.27 mg/dL
  GLUCOSE: 152 mg/dL
  LACTATE DEHYDROGENASE: 372.67 u/L
  LIPASE: 9.83 u/L
  PHOSPHORUS: 12.47 mg/dL
  POTASSIUM: 6.81 MEQ/L
  SODIUM: 144.1 MEQ/L
  TOTAL BILIRUBIN: 0.23 mg/dL
  TOTAL PROTEIN: 5.93 G/DL
  URIC ACID: 1.9 mg/dL
[2]
  ABSOLUTE BASOPHIL: 0 CELLS/uL
  ABSOLUTE EOSINOPHIL: 67.33 CELLS/uL
  ABSOLUTE LYMPHOCYTE: 11419.17 CELLS/uL
  ABSOLUTE MONOCYTE: 203.17 CELLS/uL
  ABSOLUTE SEGMENTED NEUTROPHIL: 1327 CELLS/uL
  BASOPHIL: 0%
  EOSINOPHIL: 0.5%
  ERYTHROCYTE COUNT: 5.65 x10E6/uL
  HEMATOCRIT: 35.3%
  HEMOGLOBIN: 13.98 G/DL
  LEUKOCYTE COUNT: 13.02 x10E3/uL
  LYMPHOCYTE: 88%
  MEAN CORPUSCULAR HEMOGLOBIN: 24.78 pg
  MEAN CORPUSCULAR HEMOGLOBIN CONCENTRATION: 39.63 G/DL
  MEAN CORPUSCULAR VOLUME: 62.58 fL
  MONOCYTE: 1.33%
  NEUTROPHIL: 10.17%
  NUCLEATED RED BLOOD CELLS: 0 /100WBC
  PLATELET COUNT: 1213.83 x10E3/uL
  ALANINE AMINOTRANSFERASE: 49.67 u/L
  ALBUMIN: 4.28 G/DL
  ALKALINE PHOSPHATASE: 362.33 u/L
  ASPARTATE AMINOTRANSFERASE: 99 u/L
  BLOOD UREA NITROGEN: 20.67 mg/dL
  CARBON DIOXIDE: 26.33 mmol/L
  CHLORIDE: 102 MEQ/L
  CHOLESTEROL: 63.83 mg/dL
  CREATINE PHOSPHOKINASE: 481.83 u/L
  CREATININE: 0.21 mg/dL
  GLUCOSE: 158 mg/dL
  LACTATE DEHYDROGENASE: 656.33 u/L
  LIPASE: 10.67 u/L
  PHOSPHORUS: 12.27 mg/dL
  POTASSIUM: 6.17 MEQ/L
  SODIUM: 143.35 MEQ/L
  TOTAL BILIRUBIN: 0.17 mg/dL
  TOTAL PROTEIN: 6.13 G/DL
  URIC ACID: 1.48 mg/dL
[3]
  ABSOLUTE BASOPHIL: 0 CELLS/uL
  ABSOLUTE EOSINOPHIL: 0 CELLS/uL
  ABSOLUTE LYMPHOCYTE: 10188.33 CELLS/uL
  ABSOLUTE MONOCYTE: 75.33 CELLS/uL
  ABSOLUTE SEGMENTED NEUTROPHIL: 1069.67 CELLS/uL
  BASOPHIL: 0%
  EOSINOPHIL: 0%
  ERYTHROCYTE COUNT: 5.49 x10E6/uL
  HEMATOCRIT: 34.4%
  HEMOGLOBIN: 13.73 G/DL
  LEUKOCYTE COUNT: 11.33 x10E3/uL
  LYMPHOCYTE: 89.67%
  MEAN CORPUSCULAR HEMOGLOBIN: 25.03 pg
  MEAN CORPUSCULAR HEMOGLOBIN CONCENTRATION: 39.93 G/DL
  MEAN CORPUSCULAR VOLUME: 62.7 fL
  MONOCYTE: 0.67%
  NEUTROPHIL: 9.67%
  NUCLEATED RED BLOOD CELLS: 0 /100WBC
  PLATELET COUNT: 1183.67 x10E3/uL
  ALANINE AMINOTRANSFERASE: 53.67 u/L
  ALBUMIN: 4.23 G/DL
  ALKALINE PHOSPHATASE: 410.67 u/L
  ASPARTATE AMINOTRANSFERASE: 90 u/L
  BLOOD UREA NITROGEN: 16.67 mg/dL
  CARBON DIOXIDE: 29 mmol/L
  CHLORIDE: 102.67 MEQ/L
  CHOLESTEROL: 81 mg/dL
  CREATINE PHOSPHOKINASE: 371 u/L
  CREATININE: 0.23 mg/dL
  GLUCOSE: 155.67 mg/dL
  LACTATE DEHYDROGENASE: 328 u/L
  LIPASE: 8 u/L
  PHOSPHORUS: 12.13 mg/dL
  POTASSIUM: 6.17 MEQ/L
  SODIUM: 143.6 MEQ/L
  TOTAL BILIRUBIN: 0.2 mg/dL
  TOTAL PROTEIN: 5.9 G/DL
  URIC ACID: 1.6 mg/dL
